Experimental data published in US20180207165A1, “METHODS AND COMPOSITIONS FOR STIMULATING BENEFICIAL BACTERIA IN THE GASTROINTESTINAL TRACT” (Rijksuniversiteit Groningen, priority 2012, published 2018).

How the values were obtained:
F. prausnitzii = experiment: Stability of F. prausnitzii synbiotic formulations after exposure to ambient air (CFU count); design: species or system Faecalibacterium prausnitzii; settings: ingredient in lyophilized formulation
Method: To produce a formulation with living faecalibacteria that are stable for at least 24 h under aerobic conditions, series of experiments were performed with different combinations of ingredients. Faecalibacteria were grown overnight in broth culture medium, centrifuged and the pellet was washed with anaerobic phosphate buffered saline (PBS) and centrifuged again. The mixtures were frozen at −20° C. and subsequently lyophilized.
After lyophilizing, the formulations were exposed to air for the indicated time periods. The preparations were re-suspended in phosphate buffer and a 10 fold-dilution series was plated on anaerobic growth medium agar. The Colony-forming units were counted and compared with a non exposed t=0 time point.
The lyophilized granules obtained according to step 2 were stored in air tight containers under ambient aerobic conditions. For stability and viability studies granules were exposed to the ambient air at defined period up to 24 h. After aerobic exposures the granules were processed anaerobically under anaerobic tent. The granules were diluted and rehydrated in oxygen free phosphate buffered saline (pH 7.2) supplemented with 0.05% cysteine and ten-fold dilution series were plated on YCFAG agar medium. Colony forming units were determined by counting the colonies formed on the agar plates after 24 h of incubations at 37° C.

[1] = test system: Faecalibacterium prausnitzii; experiment: Riboflavin intervention trial: FISH count of F. prausnitzii in fecal samples; assay type: in vivo, human
Method: (§1) A human intervention study was performed to investigate the effect of riboflavin on the numbers of Faecalibacterium prausnitzii in the gut. A group of 8 volunteers (body weight 60 to 90 kg) were asked to take 1 oral dose of 100 mg riboflavin supplement per day for 14 days.
(§2) Two samples were taken in a period of two weeks before the intake, as baseline samples, two samples (one per week) were taken during the intake and one sample a week after intake. The number of F. prausnitzii and that of other bacterial groups were determined by FISH with a specific probes as describe before (Harmsen et al. Appl Environ Microbiol. 2002 June; 68(6):2982-90). The numbers of faecalibacteria of the samples taken before and during the intake were averaged and all samples were plotted in FIG. 1.

[2] = Butyrate production in human volunteers on oral riboflavin; assay type: in vivo; settings: orally administered riboflavin
Enterococci = experiment: Riboflavin intervention trial: count of Enterococci in fecal samples; assay type: in vivo, human; settings: during the intervention, 100 mg/day riboflavin
Method: as §1, §2

[3] = test system: Enterobacteriaceae, E. coli-like bacteria; experiment: Riboflavin intervention trial: count of E. coli-like bacteria in fecal samples; assay type: in vivo, human
Method: as §1, §2

Clostridium group XIVa = experiment: Riboflavin intervention trial: FISH count of Clostridium group XIVa in fecal samples; assay type: in vivo, human; settings: 8 volunteers, 100 mg/day oral riboflavin for two weeks
Method: as §1, §2

N[C@@H](CS)C(=O)O [cysteine]
protective effect on faecalibacteria against ambient air exposure (F. prausnitzii): provide the protective effect

O=C1O[C@H]([C@@H](O)CO)C(O)=C1O [ascorbic acid]
protective effect on faecalibacteria against ambient air exposure (F. prausnitzii): not observed

Cc1cc2nc3c(=O)[nH]c(=O)nc-3n(C[C@H](O)[C@H](O)[C@H](O)CO)c2cc1C [riboflavin]
percentage F. prausnitzii of the total bacteria ([1]; 8 volunteers, 100 mg/day oral riboflavin for 14 days, feces): increased in 7 out of 8 samples | number of faecalibacteria in fecal samples ([1]; 8 volunteers, 1 oral dose of 100 mg riboflavin per day for 14 days, pre, during, post intake, FISH): increased during intake and decreased again when the intake ceases | ratio faecalibacteria/Clostridium group XIVa ([1]; calculated from before and from during intake, 100 mg/day riboflavin): increased in all cases | butyrate production [2]: enhanced | protective effect on faecalibacteria against ambient air exposure (F. prausnitzii): provide the protective effect | number of Enterococci in fecal samples (Enterococci): did not increase during the intervention | number of E. coli(-like bacteria) in fecal samples ([3]; during riboflavin intake, 100 mg/day for two weeks, all individuals tested): decreased or remained the same | ratio of faecalibacteria to E. coli-like bacteria ([3]; upon administration of riboflavin, 100 mg/day): the ratio shifted towards faecalibacteria | number of Clostridium group XIVa bacteria in fecal samples (Clostridium group XIVa): did not increase

O=c1c(O)c(-c2ccc(O)c(O)c2)oc2cc(O)cc(O)c12 [quercitin]
protective effect on faecalibacteria against ambient air exposure (F. prausnitzii): not observed
